# In patent publication US20090017070A1, “In vitro model for hepatitis c virion production” (priority 2004, published 2009):
# How the values were obtained:
# [1] = tested on: HCV (JFH-1, genotype 2a) in Huh7 cells; assay: Interferon treatment of HCV.JFH1-Rbz transfected Huh7 cells, viral production by HCV core Ag level in the medium; type: cell-based, Hepatitis C virus; settings: treated with interferon one day after transfection, HCV core Ag level in medium (FIG. 13B)
# Text: FIG. 13. Production of infectious HCV in culture. (A). Full-length genomic cDNAs of HCV genotypes 1a (H77), 2b (J6), and 2a (JFH-1) were cloned into the HCV-ribozyme construct as described in FIG. 7. The constructs and the pTHr plasmid containing the CG1b HCV genome as described above were transfected into Huh7 cells and tested for virus production in the medium by using HCV core Ag ELISA. (B) HCV.JFH1-Rbz construct was transfected to Huh7 cells and treated with interferon one day after transfection. Viral production was monitored by measurement of HCV core Ag level in the medium. (C) Long-term culture of HCV.JFH1.Rbz transfected Huh7 cells were maintained with serial passage for the indicated duration. Culture medium was harvested at indicated times for HCV core Ag level and HCV RNA titer. […] Multiple foci of cells with positive intracellular staining were detected.
# HCV RNA, Protein Quantitation, and RACE. HCV RNA level was quantitated by using the TaqMan real-time PCR method as previously described (Thomson, M. et al. 2001 Gastroenterology 121:1226-33). […] The core protein was quantitated by using the HCV core ELISA kits, which were provided by S. Yagi (Advanced Life Technology, Saitama, Japan) and used as previously described (Tanaka, E. et al. 2000 Hepatology 32: 388-93). […]
# [2] = tested on: HCV; settings: HCV-infected individuals treated with IFN; cited from earlier work
substance,measurement,setting,value
interferon-alfa,Sensitivity of viral replication to interferon-alfa treatment,[1],sensitive
same,Proportion of those treated showing a sustained response as evidenced by lack of circulating HCV RNA,[2],10-20%
